A value given as a limit tells only on which side of the number the result lay.

Here are results for 23 molecules from patent US12240840B2, “Amide-substituted heterocyclic compounds for the treatment of conditions related to the modulation of IL-12, IL-23 and/or IFN-alpha” (BRISTOL-MYERS SQUIBB COMPANY, priority 2018, dated 2025).

In one experiment the test system is IFNα-induced pSTAT5 (pY694) in CD3 positive cells of human whole blood. The experiment in a line: IFNα-Induced STAT Phosphorylation in Human Whole Blood. In kind it is cell-based. The settings on record: 1 h compound incubation, 1000 U/mL recombinant human IFNα A/D for 15 min, pSTAT5 in CD3 positive population, read-out: Human WB IFNα-Induced Stat Phosph. (IC50). The method in brief:
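Read-out is median fluorescence intensity of pSTAT5 (pY694) in the CD3-positive gate, by flow cytometry after fix/lyse and permeabilization. Before that, whole human blood anticoagulated with EDTA or ACD-A received compound for an hour and 1000 U/mL IFNα A/D for 15 min.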
What is called IC50 is the midpoint of a concentration-inhibition curve. On to `[2H]C([2H])([2H])NC(=O)c1cnc(NC(=O)C2CC2)cc1Nc1cccc(-c2ccn(CCNC(=O)COC)n2)c1OC` [Example 472], for which the 50% inhibitory concentration (IC50) was 290 nM.

Still in this experiment, the particulars now being: Homo sapiens, 1 h compound incubation, 1000 U/mL recombinant human IFNα A/D for 15 min, pSTAT5 in CD3 positive population, read-out: Human WB IFNα-Induced Stat Phosph. (IC50).
Take `COc1c(Nc2cc(NC(=O)C3CC3)ncc2C(N)=O)cccc1-c1cnn(CCNC(=O)CC#N)n1` [Example 446]: the IC50 was 270 nM. Still for that read-out and setting: the same measure for `[2H]C([2H])([2H])NC(=O)c1nnc(NC(=O)C2CC2)cc1Nc1cccc(-c2ncc(C(=O)NC3CCCN(C)C3)s2)c1OC` (centres unmarked) [Example 337]: 70 nM; for `[2H]C([2H])([2H])NC(=O)c1nnc(NC(=O)C2CC2)cc1Nc1cccc(-c2noc(C(C)C(=O)N3CCOCC3)n2)c1OC` (centres unmarked) [Example 29]: 130 nM; for `[2H]C([2H])([2H])NC(=O)c1nnc(NC(=O)C2CC2)cc1Nc1cccc(-c2nc(CN3CCN(S(C)(=O)=O)CC3)no2)c1OC` [Example 128]: 30 nM. Still for that read-out and setting: then `COC(=O)N1CCN(Cc2nc(-c3cccc(Nc4cc(NC(=O)C5CC5)nnc4C(N)=O)c3OC)no2)CC1` [Example 39], with 23 nM. The same measure, in the same setting: then `[2H]C([2H])([2H])NC(=O)c1nnc(NC(=O)C2CC2)cc1Nc1cc(F)cc(-c2cc(C(=O)N3CCN(C)CC3)n(C)n2)c1OC` [Example 497], with 110 nM; and `[2H]C([2H])([2H])NC(=O)c1nnc(NC(=O)C2CC2)cc1Nc1cccc(-c2ncc(C(=O)N3CC(C)(C)C3)s2)c1OC` [Example 320], with 50 nM.

For the molecule `[2H]C([2H])([2H])NC(=O)c1nnc(NC(=O)C2CC2)cc1Nc1cccc(-c2ncc(C(=O)N3CC(N(C)C)C3)s2)c1OC` [Example 334], the IC50 came to 50 nM. Same read-out and setting: then `[2H]C([2H])([2H])NC(=O)c1nnc(NC(=O)C2CC2)cc1Nc1cc(F)cc(-c2cc(C(=O)N(C)C)n(C)n2)c1OC` [Example 495], with 60 nM; and `[2H]C([2H])([2H])NC(=O)c1cnc(NC(=O)C2CC2)cc1Nc1cc(F)cc(-c2csc(C(=O)NCCOC)n2)c1OC` [Example 574], with 700 nM; and `[2H]C([2H])([2H])NC(=O)c1nnc(NC(=O)C2CC2)cc1Nc1cc(F)cc(-c2cc(C(=O)N(C)CC)n(C)n2)c1OC` [Example 505], with 180 nM. For the molecule `[2H]C([2H])([2H])NC(=O)c1nnc(NC(=O)C2CC2)cc1Nc1cccc(-c2noc(CN3CCC(O)C3)n2)c1OC` (centres unmarked) [Example 82], the IC50 is 70 nM. On the same count and under the same terms, then `[2H]C([2H])([2H])NC(=O)c1nnc(NC(=O)C2CC2)cc1Nc1cccc(-c2nc(CC(=O)N3CCOCC3)no2)c1OC` [Example 179], with 290 nM. On the same count and under the same terms, then `[2H]C([2H])([2H])NC(=O)c1nnc(NC(=O)C2CC2)cc1Nc1cccc(-c2noc(CNS(C)(=O)=O)n2)c1OC` [Example 32], with 80 nM; and `[2H]C([2H])([2H])NC(=O)c1nnc(NC(=O)C2CC2)cc1Nc1cccc(-c2nc(CNC(C)=O)no2)c1OC` [Example 145], with 270 nM. Same read-out and setting: then `[2H]C([2H])([2H])NC(=O)c1cnc(NC(=O)C2CC2)cc1Nc1cccc(-c2cnn(CCNC(C)=O)n2)c1OC` [Example 439], with 440 nM.

With `[2H]C([2H])([2H])NC(=O)c1nnc(NC(=O)C2CC2)cc1Nc1cccc(-c2nc([C@@H](NC(C)=O)[C@@H](C)O)no2)c1OC` [Example 187], the half-inhibitory concentration (IC50) turned out to be 1130 nM. Still for that read-out and setting: the same measure for `COc1c(Nc2cc(N)nnc2C(N)=O)cccc1-c1noc(CN2CCN(S(C)(=O)=O)CC2)n1` [Example 109]: greater than 10000 nM; for `COc1c(Nc2cc(NC(=O)C3CC3)nnc2C(N)=O)cccc1-c1ncc(C(=O)NCc2cccc(Cl)c2)o1` [Example 421]: 290 nM; for `[2H]C([2H])([2H])NC(=O)c1nnc(NC(=O)C2CC2)cc1Nc1cccc(-c2nc(CN3CCN(C(=O)c4ccccn4)CC3)no2)c1OC` [Example 130]: 490 nM. On the same count and under the same terms, then `[2H]C([2H])([2H])NC(=O)c1nnc(NC(=O)C2CC2)cc1Nc1cccc(-c2cc(C(=O)NCC)n(C)n2)c1OC` [Example 457], with 770 nM; and `[2H]C([2H])([2H])NC(=O)c1nnc(NC(=O)C2CC2)cc1Nc1cccc(-c2cnn(CCO)n2)c1OC` [Example 450], with 200 nM.
